Measurements reported in patent US6998403B2, “Benzoindoline compounds” (Les Laboratoires Servier, priority 2003, dated 2006).
pKi: −log10 of the molar value. Marks after values point to notes of the source that are not given here.

Assays:
[1] = tested on: extracellular concentrations of NA, DA and ACh in the frontal cortex; assay: Measurement of neurotransmitters in the frontal cortex of rats (microdialysis, HPLC); format: in vivo, rat; settings: 10.0 mg/kg s.c.; for ACh, percentage area beneath the curve (%AbC ± S.E.M.): acetylcholine in frontal cortex dialysates of conscious rats; for ACh, percentage area beneath the curve (%AbC ± S.E.M.) / DA, percentage area beneath the curve (%AbC ± S.E.M.) / NA, percentage area beneath the curve (%AbC ± S.E.M.): 20 min. to 120 min. after administration; for DA, percentage area beneath the curve (%AbC ± S.E.M.): dopamine in frontal cortex dialysates of conscious rats; for change in extracellular concentration of ACh (in words) / change in extracellular concentration of DA (in words) / change in extracellular concentration of NA (in words): frontal cortex dialysates of conscious rats; for NA, percentage area beneath the curve (%AbC ± S.E.M.): noradrenaline in frontal cortex dialysates of conscious rats
Experimental: Measurement of Neurotransmitters in the Frontal Cortex of Rats
The surgery is performed under pentobarbital-induced anaesthesia (60 mg/kg, i.p.). Male Wistar rats, 200–220 g (Iffa Credo, Arbresle, France), are placed in a Kopf stereotaxic device and a cannula guide (CMAMicrodialyse AB, Stockholm, Sweden) is implanted in the frontal cortex at the coordinates (in mm): anteroposterior: +2.2, lateral: ±0.6, ventral deviation: −0.2. The rats are placed in separate cages and recover from the anaesthesia over 5 days. On the day of the dialysis, a Cuprophan CMA/11 probe (length: 4 mm; ext. dia.: 0.24 mm) is introduced into the guide and perfused at 1 μl/min. with a solution of NaCl: 147.2 mM; KCl: 4 mM; CaCl2: 2.3 mM adjusted to pH 7.3 with a phosphate buffer. Two hours after implantation, samples of dialysate are collected every 20 minutes for 4 hours. Three baseline samples are collected before administration of the drug.
Noradrenaline (NA) and dopamine (DA) are measured as follows: 20 μl of dialysate sample are diluted with 20 μl of mobile phase (NaH2PO4: 75 mM, EDTA: 20 μM, sodium decanesulphonate: 1 mM, methanol: 17.5%, triethylamine: 0.01%, pH: 5.70) and 33 μl are analysed by HPLC using, for separation, an inverse-phase column (Hypersil C 18, 150×4.6 mm; particle size 5 μm) thermostatically controlled at 43° C. and, for quantification, a coulometric detector (ESA5014, Coulochem II, ESA, Chelmsford, USA). The potential of the first electrode is −90 mV (reduction) and that of the second +280 mV (oxidation). The mobile phase flow rate is 2 ml/min. The sensitivity limit for NA and DA is 0.2 pg.
Acetylcholine (ACh) is measured and quantified in the absence of acetylcholine esterase (AChE) inhibitor 20 μl of dialysate sample are collected in 10 μl of 0.01% acetic acid. 20 μl aliquots are analysed by HPLC. The mobile phase is composed of Na2HPO4: 50 mM and ProClin: 0.5% (BAS, Congleton, UK), pH 8.2. The stationary phase is composed of a cation-exchange column (Sepstik, 530×1.0 mm, particle size 10 μm, BAS), a pre-column (choline oxidase/catalase enzymatic reactor, 55×1 mm, BAS) and a post-column (choline oxidase/AChE enzymatic reactor, 50×1 mm, BAS). The system is maintained at 35° C. Quantification is carried out by means of an amperometric detector (LC-4B, BAS). A layer of peroxidase-redox polymer is deposited on the vitreous carbon working electrode (MF2098, BAS). The potential of that electrode is +100 mV relative to the Ag/AgCl reference electrode. The mobile phase flow rate is 0.14 ml/min. The sensitivity limit for ACh is 0.1 pg.
The levels of NA, DA and ACh are expressed as the percentage area beneath the curve (% AbC) ±S.E.M. of times 20 min. to 120 min. after administration of the drug. The effects of the compound of Example 1 are compared (ANOVA) with those obtained in animals treated with the solvent or with 6-chloro-5-fluoro-N-[4-methoxy-3-(4-methyl-1-piperazinyl)phenyl]-1-indoline-carboxamide.

5-HT2C receptors = molecular target: T1, 5-HT2C receptors (Homo sapiens, UniProt P28335); assay: Determination of the affinity for 5-HT2C receptors (competition with [3H]-mesulergine); format: binding; settings: 22° C., pH=7.7, IC50 converted into pKi
T1 sequence (P28335 33-458): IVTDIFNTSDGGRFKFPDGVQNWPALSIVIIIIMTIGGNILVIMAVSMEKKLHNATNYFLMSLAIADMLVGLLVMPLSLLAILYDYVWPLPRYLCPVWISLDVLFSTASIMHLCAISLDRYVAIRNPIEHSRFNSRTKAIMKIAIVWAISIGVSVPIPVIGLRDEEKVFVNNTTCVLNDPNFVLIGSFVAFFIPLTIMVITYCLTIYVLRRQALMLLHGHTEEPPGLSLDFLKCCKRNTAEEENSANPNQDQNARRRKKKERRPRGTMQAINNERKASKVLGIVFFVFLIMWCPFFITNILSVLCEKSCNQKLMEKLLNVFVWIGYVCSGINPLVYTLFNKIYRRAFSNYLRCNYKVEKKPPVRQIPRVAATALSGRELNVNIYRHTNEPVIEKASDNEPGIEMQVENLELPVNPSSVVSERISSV
Experimental: The non-specific fraction is defined in the presence of 1 μM mianserin, the latter also being the reference product for each experiment. At the end of the incubation period, the medium is filtered through GF/B-Unifilter filters pre-treated with PEI (0.1%), followed by washing three times with the incubation buffer. The radioactivity retained on the filters is determined by liquid scintillation counting. The binding isotherms are analysed by non-linear regression in order to determine the IC50 values. They are converted into pKi (where Ki is the dissociation constant).

| Structure (SMILES) | ACh, percentage area beneath the curve (%AbC ± S.E.M.) [1] | DA, percentage area beneath the curve (%AbC ± S.E.M.) [1] | change in extracellular concentration of ACh (in words) [1] | change in extracellular concentration of DA (in words) [1] | change in extracellular concentration of NA (in words) [1] | NA, percentage area beneath the curve (%AbC ± S.E.M.) [1] | pKi (5-HT2C receptors) |
| --- | --- | --- | --- | --- | --- | --- | --- |
| COc1ccc(NC(=O)N2CCc3c2ccc2ccccc32)cc1N1CCN(C)CC1.Cl [Example 1, N-[4-Methoxy-3-(4-methyl-1-piperazinyl)phenyl]-1,2-dihydro-3H-benzo[e]indole-3-carboxamide Hydrochloride] | +107.7 ± 13.5^a,b %AbC | +52.9 ± 6.6^a %AbC | substantial increase | substantial increase | substantial increase | +105.4 ± 7.3^a,b %AbC | 8.20 |
| COc1ccc(NC(=O)N2CCc3cc(F)c(Cl)cc32)cc1N1CCN(C)CC1 [Example 11 of application EP-1170288, 6-chloro-5-fluoro-N-[4-methoxy-3-(4-methyl-1-piperazinyl)phenyl]-1-indolinecarboxamide] | +15.1 ± 12.3 %AbC | +19.5 ± 4.9 %AbC | no change | very modest increase | very modest increase | +39.8 ± 6.7 %AbC | 7.40 |
